Source: the NIST ThermoML archive (doi:10.1016/j.jct.2012.12.019)
Numbers after ± are expanded uncertainties.

Conditions: Liquid, Closed cell (Static) method

vapor or sublimation pressure (383.2 K): 160.4 ± 3.5 kPa
vapor or sublimation pressure (393.2 K): 223.3 ± 4.7 kPa
vapor or sublimation pressure (403.2 K): 303.1 ± 6.3 kPa
vapor or sublimation pressure (413.2 K): 406.6 ± 8.5 kPa
vapor or sublimation pressure (423.2 K): 546.1 ± 11 kPa
SMILES: CCCO [propan-1-ol]
